Test results as given in PubChem BioAssay (NCI).
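Grown in 96-well plates, cells were treated for 48 hours with each compound at five concentrations. Insufficient inhibition: endpoint recorded as highest concentration tested. GI50 is the concentration that inhibits growth by half. Definition used: TGI = concentration required for complete inhibition of growth.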

Legend:
Experiment in all cases: growth of human tumour cells (NCI), 48 h
[1] = tested on: PC-3 prostate
[2] = tested on: A549 NSCLC
[3] = tested on: KM12 colon
[4] = tested on: HS 578T breast
[5] = tested on: UACC-62 melanoma
[6] = tested on: COLO 205 colon
[7] = tested on: MOLT-4 leukemia
[8] = tested on: LOX IMVI melanoma
[9] = tested on: M14 melanoma
[10] = tested on: RPMI-8226 leukemia

SMILES | GI50 [1] [µM] | TGI [1] [µM] | GI50 [2] [µM] | TGI [2] [µM] | GI50 [3] [µM] | TGI [3] [µM] | GI50 [4] [µM] | TGI [4] [µM] | GI50 [5] [µM] | TGI [5] [µM] | GI50 [6] [µM] | TGI [6] [µM] | GI50 [7] [µM] | TGI [7] [µM] | GI50 [8] [µM] | TGI [8] [µM] | GI50 [9] [µM] | TGI [9] [µM] | GI50 [10] [µM] | TGI [10] [µM]
CC(C)[C@@]12C[C@@H](OC(=O)[C@H]3CO3)[C@@](C)(O1)[C@@H]1CC[C@@H](C)[C@H]1[C@@H]2OC(=O)/C=C/c1ccccc1 | 9.59 | > 88.1 | 16.7 | 54.6 | 19.1 | > 60 | 0.0736 | 0.501 | 13.6 | 35.7 | 23.2 | > 65.1 | 18.1 | > 100 | 12.6 | 46.3 | 27 | > 100 | 13.5 | 68.2
CCOc1ccc([C@@H]2[C@@H](Oc3ccccc3)C(=O)N2c2cc(OC)c(OC)c(OC)c2)cc1 | 0.0706 | > 100 | 0.215 | > 100 | 0.0525 | > 100 | 0.0583 | > 100 | 0.0427 | > 100 | 0.124 | 0.506 | 0.17 | > 100 | 0.0642 | > 100 | 0.04 | > 100 | 0.0486 | > 100
C/C(=N\NC(=O)c1ccncc1)c1ccc2ccccc2c1O |  | 96.9 |  | > 100 |  | 60.8 |  | 98.1 |  | 21.6 |  | 11.5 |  | 40.3 |  | > 100 |  | 38.2 |  | > 64.4
CC(=O)Nc1ccc(Sc2ccc([N+](=O)[O-])o2)cc1 | 2.23 | 6.58 | 6.37 | 23.3 | 2.84 | 9.08 | 3.87 | 24.9 | 1.83 | 3.84 | 0.651 | 1.82 | 2.14 | 6.42 | 1.45 | 3.05 | 2.08 | 4.09 | 2.13 | 8.65
COc1ccc(C(=O)c2ccc(OC)c(OC)c2OC)cc1 | 3.21 | > 100 | 2.01 | > 100 | 0.492 | 25.2 | 0.915 | 3.65 | 1.47 | > 100 | 1.14 | 3.13 | 1.11 | > 100 | 6.63 | > 100 | 1.32 | 71.2 | 2.59 | > 100
CCCCCCCCCCCCCCCCCC1=NCCN1CS(=O)(=O)O | 11.4 | 26.1 | 12.5 | 31.2 | 2.78 | 8.49 | 11.6 | 40 | 16.9 | 35.1 | 5.07 | 18.5 | 10.2 | 38.6 | 2.86 | 12.5 | 6.19 | 21 | 26.6 | 90.1
CC(=O)N1CC(Nc2ccc(OC(F)(F)F)cc2)=CC1=O | 2.99 | > 100 | 2.01 | > 100 | 0.562 | 25.1 | 3.11 | > 100 | 0.821 | > 100 | 1.21 | 4.69 | 4.21 | > 100 | 2.32 | > 100 | 0.535 | 6.71 | 2.67 | > 100
CN1CCCNc2c(c(=O)c2=O)NCCCN(C)CCCNc2c(c(=O)c2=O)NCCCN(C)CCCNc2c(c(=O)c2=O)NCCCN(C)CCCNc2c(c(=O)c2=O)NCCCN(C)CCCNc2c(c(=O)c2=O)NCCCN(C)CCCNc2c(c(=O)c2=O)NCCCN(C)CCCNc2c(c(=O)c2=O)NCCC1 | 7.02 | 22.2 | 6.05 | > 50 | 3.63 | 18 | 9.15 | 31.2 | 2.39 | 16.8 | 2 | 6.13 | 9.7 | 45.2 | 10.5 | > 50 | 6.86 | 18.6 | 3.51 | 31.2
Cc1ccc(NC(=O)NC(=O)c2ccc([N+](=O)[O-])cc2[N+](=O)[O-])cc1Oc1ncc(Cl)cn1 |  | 12.2 |  | > 40.2 |  | 6.83 |  | 10.8 |  | 21 |  | 5.9 |  | 49.8 |  | 11.9 |  | 11.3 |  | 3.08
C1CCN(CCC2CCCCN2)CC1 (centres undefined) |  | > 100 |  | > 100 |  | > 100 |  | > 100 |  | > 100 |  | > 100 |  | > 100 |  | > 100 |  | > 100 |  | > 100
Cc1cccc(Oc2nccc(-c3c(-c4ccc(F)cc4)ncn3C3CCNCC3)n2)c1C | 9.94 | > 23.2 | > 14.3 | > 25 | 11.2 | > 23.8 | 8.9 | > 16.2 | 4.94 | 9.96 | 4.21 | 8.03 | 7.17 | 17.6 | 5.79 | > 15.1 | 4.8 | 9.01 | 7.52 | > 18.6
C=C(C)[C@@H]1CC[C@]2(C)[C@H](C(=O)C=C3[C@@H]4C[C@](C)(C(=O)N5CCN(C)CC5)CC[C@]4(C)CC[C@]32C)[C@@]1(C)CCC#N | 3.17 | 10.4 | 7.12 | 14.5 | 6.43 | 13.4 | 7.99 | 20.9 | 6.03 | 12.5 | 5.78 | 13.4 | 2.95 | 10.9 | 6.24 | 12.6 | 6.86 | 14.1 | 5.47 | 15.4
COc1cc(NCCCCN=C(N)NC(N)=NC(C)C)c2ncccc2c1 | 2.22 | 16.8 | 35.4 | > 100 | 1.48 | 11.8 | 5.51 | 27.1 | 10.3 | 24.3 | 0.987 | 4.46 | 3.28 | 16.6 | 3.68 | 15.5 | 14.6 | 38.3 | 1.51 | 11
COc1cccc(C2C(C#N)=C(N)Oc3cc(N)ccc32)c1 (centres undefined) | 0.509 | > 100 | 0.572 | > 100 | 0.442 | 45.9 | 0.314 | > 100 | 0.368 | > 100 | 0.385 | 2.09 | 0.563 | > 52.3 | 0.506 | > 100 | 0.341 | > 100 | 0.412 | > 69
CSc1cnn(CCC#N)c(=O)n1 |  | > 100 |  | > 100 |  | > 100 |  | > 100 |  | > 100 |  | > 100 |  | > 100 |  | > 100 |  | > 100 |  | > 100
Cc1cc2cc3cc(C)c(N(C)C)cc3nc2cc1N(C)C | 2.4 | 39.9 | 3 | > 100 | 1.66 | 6.22 | 1.89 | 18.1 | 2.97 | 17.2 | 1.84 | 7.41 | 3.29 | > 100 | 3.33 | 78 | 3.76 | 18.4 | 4.16 | > 100
CC(=O)c1c(C(F)(F)F)n([O-])c2ccc(Cl)cc2[n+]1=O |  | 2.79 | 2.5 | 11.6 | 0.364 | 2.39 | 6.65 | > 26.5 | 0.916 | 3.45 | 1.77 |  |  | 1.54 | 0.652 | 3.92 | 1.78 | 5.05 | < 0.0422 | 0.171
CN(C)c1ccc(/C=C(/NC(=O)c2ccccc2)c2nc3ccc(Cl)cc3[nH]2)cc1 | 29.2 | > 100 |  | > 100 |  | > 100 | 59.6 | > 100 |  | 97.6 |  | 66.7 |  | 71.1 |  | > 70.6 |  | > 100 |  | > 82.2
